Laboratory results published in patent US4999374A, “Veterinary treatment” (priority 1987, dated 1991).
“And” between values parts separate entries of the source, which are not always exact repeats. Identical values can stand only once. Like-named read-outs stand apart in the source and are kept apart here. Values belong to the compound of their own block, whether it stands above or below them.

Legend:
T. hyodysenteriae [1] = assay: MIC of M139603 against thirteen T. hyodysenteriae isolates vs salinomycin and dimetridazole (Example 1, Table 1); assay type: cell-based, Treponema hyodysenteriae; conditions: Brachyspira hyodysenteriae
Method: The minimum inhibitory concentration of M139603 was tested in parallel with dimetridazole (May & Baker) and the growth-promoting polyether antibiotic salinomycin (Hoechst) against thirteen strains of T. hyodysenteriae.

T. hyodysenteriae [2] = assay: Comparative efficacy of M139603 and lasalocid in experimentally infected mice (Example 4, Table 4); assay type: in vivo, mice (strain MF-1); conditions: for Mean (log10) viable treponemes per gram caecal contents / Viable treponemes per gram caecal contents: 5 days; for Mean (log10) viable treponemes per gram caecal contents: group mean (table); for Viable treponemes per gram caecal contents: individual mice
Description: (§1) The infection leads to varying degrees of caecitis, the lesions of which are apparent in animals killed on or about the sixth day post-infection. Caecal specimens examined by bacteriological culture techniques applicable for enumeration of organisms reveal the presence of high populations of T.hyodysenteriae. This disease-model was used in experiments to compare the efficacy of M139603 with that of salinomycin, lasalocid and monensin in suppressing the infection.
(§2) In this study, the efficacy of M139603 was tested at 25 ppm feed and that of monensin (Eli Lilly) at 50 or 100 ppm. Groups of infected mice, five per group, were offered the drugs in the feed on five continuous days before killing. Caecal materials were subjected to bacteriological examination to enumerate the populations of viable treponemes per gram of material. […] The group mean in respect of the unmedicated groups was 7.9 cfu/g.
In this study, the efficacy of M139603 was tested at 20 ppm feed and that of lasalocid (Hoffman la Roche) at 20, 40 and 80 ppm. The test procedures were similar to those above except for the size of the inoculum of T.hyodysenteriae (1.2×10^7 cfu) used in infecting each mouse. […] The mean (log10) counts of viable treponemes found in the caecal contents of the various groups were: 2.5 cfu/g caecum (139603 at 20 ppm), 7.35 cfu (lasalocid at 20 ppm), 7.45 cfu (lasalocid at 40 ppm), 3.81 cfu (lasalocid at 80 ppm) and 8.50 cfu (unmedicated control).

T. hyodysenteriae [3] = assay: Comparative efficacy of M139603 and monensin in experimentally infected mice (Example 2, Table 2); assay type: in vivo, mice (strain MF-1); conditions: for Mean (log10) viable treponemes per gram caecum & contents / Viable treponemes per gram caecum & contents: 5 days; for Mean (log10) viable treponemes per gram caecum & contents: group mean; for Viable treponemes per gram caecum & contents: individual mice
Description: as §1, §2

T. hyodysenteriae [4] = assay: Comparative efficacy of M139603 and salinomycin in experimentally infected mice (Example 3, Table 3); assay type: in vivo, mice (strain MF-1); conditions: for Mean (log10) viable treponemes per gram caecum & contents / Viable treponemes per gram caecum & contents: 5 days; for Mean (log10) viable treponemes per gram caecum & contents: group mean; for Viable treponemes per gram caecum & contents: individual mice
Description: as §1, §2
In this study, the efficacy of M139603 was tested at 30 ppm and that of salinomycin at 30, 40 or 60 ppm feed. The mouse-groups and test-procedureswere simi-ar to those applied under Example 2 above.

MIC (T. hyodysenteriae [1]; isolate B78, read-out: MIC): 3 µg/mL
MIC (T. hyodysenteriae [1]; isolate S82/6, read-out: MIC): 30 µg/mL
MIC (T. hyodysenteriae [1]; isolate S82/7, read-out: MIC): 30 µg/mL
MIC (T. hyodysenteriae [1]; isolate S83/1, read-out: MIC): 30 µg/mL
MIC (T. hyodysenteriae [1]; isolate S83/2, read-out: MIC): 3 µg/mL
MIC (T. hyodysenteriae [1]; isolate S83/5, read-out: MIC): 3 µg/mL
MIC (T. hyodysenteriae [1]; isolate S85/1, read-out: MIC): 30 µg/mL
MIC (T. hyodysenteriae [1]; isolate S85/2, read-out: MIC): 10 µg/mL
MIC (T. hyodysenteriae [1]; isolate S85/3, read-out: MIC): 10 µg/mL
MIC (T. hyodysenteriae [1]; isolate S85/8, read-out: MIC): 3 µg/mL
MIC (T. hyodysenteriae [1]; isolate S85/9, read-out: MIC): 5 µg/mL
MIC (T. hyodysenteriae [1]; isolate S86/1, read-out: MIC): < 0.5 µg/mL
MIC (T. hyodysenteriae [1]; isolate S86/2, read-out: MIC): 10 µg/mL
MIC (T. hyodysenteriae [1]; mean of 13 strains (table), read-out: Mean MIC): 12.9 µg/mL
Structure (SMILES): Cc1ncc([N+](=O)[O-])n1C [Dimetridazole, dimetridazole]

Structure (SMILES): CC[C@@H](C(=O)[C@@H](C)[C@@H](O)[C@H](C)CCc1ccc(C)c(O)c1C(=O)O)[C@H]1O[C@](CC)([C@H]2CC[C@](O)(CC)[C@H](C)O2)C[C@@H]1C [Lasalocid, lasalocid]
Mean (log10) viable treponemes per gram caecal contents (T. hyodysenteriae [2]; 20 ppm feed): 7.35 log10 per gram
Viable treponemes per gram caecal contents (T. hyodysenteriae [2]; 20 ppm feed): 3.2 × 10^8 per gram and 1.1 × 10^4 per gram and 2.9 × 10^7 per gram and 1.7 × 10^8 per gram
Mean (log10) count of viable treponemes in caecal contents (T. hyodysenteriae [2]; 20 ppm feed): 7.35 cfu/g caecum
Mean (log10) viable treponemes per gram caecal contents (T. hyodysenteriae [2]; 40 ppm feed): 7.45 log10 per gram
Viable treponemes per gram caecal contents (T. hyodysenteriae [2]; 40 ppm feed): 3.0 × 10^ 6 per gram and 1.4 × 10^8 per gram and 2.1 × 10^8 per gram and 1.7 × 10^7 per gram and 1.2 × 10^7 per gram
Mean (log10) count of viable treponemes in caecal contents (T. hyodysenteriae [2]; 40 ppm feed): 7.45 cfu/g caecum
Mean (log10) viable treponemes per gram caecal contents (T. hyodysenteriae [2]; 80 ppm feed): 3.81 log10 per gram
Viable treponemes per gram caecal contents (T. hyodysenteriae [2]; 80 ppm feed): 4.0 × 10^4 per gram and 0 per gram and 1.0 × 10^6 per gram and 1.3 × 10^5 per gram and 2.3 × 10^3 per gram
Mean (log10) count of viable treponemes in caecal contents (T. hyodysenteriae [2]; 80 ppm feed): 3.81 cfu/g caecum

Structure (SMILES): CC[C@@]1([C@@H]2O[C@@H]([C@H]3O[C@@](O)(CO)[C@H](C)C[C@@H]3C)C[C@@H]2C)CC[C@H]([C@]2(C)CC[C@]3(C[C@H](O)[C@@H](C)[C@@H]([C@@H](C)[C@@H](OC)[C@H](C)C(=O)O)O3)O2)O1 [Monensin, monensin]
Animals yielding high populations of viable treponema (T. hyodysenteriae [3]; 50 ppm feed): four out of five
Suppression of infection (T. hyodysenteriae [3]; 50 ppm feed): ineffective
Mean (log10) viable treponemes per gram caecum & contents (T. hyodysenteriae [3]; 50 ppm feed): 5.2 log10 per gram
Viable treponemes per gram caecum & contents (T. hyodysenteriae [3]; 50 ppm feed): 1.74 × 10^8 per gram and 2.90 × 10^7 per gram and 1.0 × 10^5 per gram and negative and 2.0 × 10^5 per gram
Populations of viable treponema (range) (T. hyodysenteriae [3]; 50 ppm feed, four of five animals): 1.0×10^5 -1.7×10^8 cfu/g
Group mean (log10) viable treponema (T. hyodysenteriae [3]; 50 ppm feed, log10): 5.2 cfu/g caecum
Suppression of infection (T. hyodysenteriae [3]; 100 ppm feed): suppressed the infection
Mean (log10) viable treponemes per gram caecum & contents (T. hyodysenteriae [3]; 100 ppm feed): 0 log10 per gram
Viable treponemes per gram caecum & contents (T. hyodysenteriae [3]; 100 ppm feed, limit of detection <1.0 × 10^2): negative

Structure (SMILES): CC[C@@H](C(=O)[C@@H](C)[C@@H](O)[C@H](C)[C@@H]1O[C@@H]([C@@H](CC)C(=O)O)CC[C@@H]1C)[C@H]1O[C@]2(C=C[C@@H](O)[C@]3(CC[C@@](C)([C@H]4CC[C@](O)(CC)[C@H](C)O4)O3)O2)[C@H](C)C[C@@H]1C [Salinomycin, salinomycin]
MIC (T. hyodysenteriae [1]; isolate B78): 1 µg/mL
MIC (T. hyodysenteriae [1]; isolate S82/6): 0.75 µg/mL
MIC (T. hyodysenteriae [1]; isolate S82/7): 0.75 µg/mL
MIC (T. hyodysenteriae [1]; isolate S83/1): 0.75 µg/mL
MIC (T. hyodysenteriae [1]; isolate S83/2): 1 µg/mL
MIC (T. hyodysenteriae [1]; isolate S83/5): < 0.1 µg/mL
MIC (T. hyodysenteriae [1]; isolate S85/1): 0.75 µg/mL
MIC (T. hyodysenteriae [1]; isolate S85/2): 1 µg/mL
MIC (T. hyodysenteriae [1]; isolate S85/3): 0.75 µg/mL
MIC (T. hyodysenteriae [1]; isolate S85/8): 0.75 µg/mL
MIC (T. hyodysenteriae [1]; isolate S85/9): 0.5 µg/mL
MIC (T. hyodysenteriae [1]; isolate S86/1): < 0.1 µg/mL
MIC (T. hyodysenteriae [1]; isolate S86/2): 0.75 µg/mL
MIC (T. hyodysenteriae [1]; read-out: Mean MIC, mean of 13 strains (table)): 0.68 µg/mL
Suppression of infection (T. hyodysenteriae [4]; 30, 40 or 60 ppm feed): failed to do so, even at 60 ppm
Mean (log10) viable treponemes per gram caecum & contents (T. hyodysenteriae [4]; 30 ppm feed): 3.86 log10 per gram
Viable treponemes per gram caecum & contents (T. hyodysenteriae [4]; 30 ppm feed): negative and 6.0 × 10^6 per gram and 5.4 × 10^5 per gram
Mean (log10) viable treponemes per gram caecum & contents (T. hyodysenteriae [4]; 40 ppm feed): 6.03 log10 per gram
Viable treponemes per gram caecum & contents (T. hyodysenteriae [4]; 40 ppm feed): 6.0 × 10^6 per gram and 1.8 × 10^6 per gram and 1.6 × 10^5 per gram and 4.3 × 10^5 per gram
Mean (log10) viable treponemes per gram caecum & contents (T. hyodysenteriae [4]; 60 ppm feed): 5.52 log10 per gram
Viable treponemes per gram caecum & contents (T. hyodysenteriae [4]; 60 ppm feed): 1.3 × 10^7 per gram and 2.0 × 10^4 per gram and 1.0 × 10^6 per gram and 1.0 × 10^4 per gram and 1.5 × 10^6 per gram
